Experimental data reported in patent US9150553B2, “Carboxamide compounds and their use as calpain inhibitors” (AbbVie Deutschland GmbH & Co. KG, priority 2007, dated 2015).
“And” between values parts separate entries of the source, which are not always exact repeats. Equal entries are not always repeated.

Test: In vivo pharmacokinetic profile after oral dosing in rats (plasma, LC-MS)
Set-up: species or system Sprague-Dawley rats
Settings: plasma prodrug I-2 after oral 10 mg/kg of prodrug example 2, male rats, lines = rat 1, 2, 3 and mean
Procedure: The compound described in example 2 was prepared as a solution (20% EtOH, 40% PEG400, qc. Ampuwa) at a concentration appropriate for a 10 mg/kg (5 mL/kg) oral dose.
Three male Sprague-Dawley rats (200-300 g; Elevage Janvier, France) were used in this study. Due to size, each rat was housed in Macrolon Type 111 cages under conventional barrier conditions. The animals were fasted overnight prior to dosing and throughout the duration of the study but were permitted water ad libitum and were permitted food typically six hours postdosing. Control animals were placed under deep isoflurane anesthia and euthanized by bleeding (cardiac puncture) and their tissues removed and used as blank standards during sample analysis.
The group contained three rats. The group of rats received a 10 mg/kg (5 mL/kg) dose orally by gavage. At the conclusion of the study, rats were euthanized by bleeding (cardiac puncture) under deep isoflurane anesthesia.
Potassium-EDTA blood samples (approx. 200-300 μl) were withdrawn from the tail vein of each animal by butterfly catheter 0.25, 0.5, 1, 1.5, 2, 3, 4, 6, 8 and 24 hours after drug administration. Upon collection, the samples were promptly placed in an ice bath, and within 2 hours after sample collection they were centrifuged at about 4° C. Upon completion of the study, animals were put under deep anesthesia using isoflurane and euthanized by bleeding (cardiac puncture). The resulting plasma samples were placed in clean PP-tubes and stored in a freezer until analysis.
The plasma samples were assayed for the compound I and corresponding drug II using appropriate liquid chromatography mass spectrometry procedures.
Peak plasma concentrations (Cmax) and the time to peak plasma concentration (Tmax) were read directly from the plasma concentration data for each rat. The drug and the prodrug plasma concentration data were submitted to multi-exponential curve fitting using WinNonlin. The area under the plasma concentration-time curve from 0 to t hours (time of the last measurable plasma concentration) after dosing (AUC0-t) was calculated using the linear trapezoidal rule for the plasma concentration-time profiles. The residual area extrapolated to infinity, determined as the final measured plasma concentration (Ct) divided by the terminal elimination rate constant (B), was added to AUC0-t to produce the total area under the curve (AUC0-∞). The apparent total plasma clearance (CLp) was calculated by dividing the administered dose by the AUC0-∞. The initial volume of distribution (Vc) was calculated as the dose divided by the extrapolated concentration at time=0 (C0). […] The bioavailability was calculated as the dose-normalized AUC0∞, from the oral dose divided by the corresponding value derived from an intravenous dose.

[1] = male, Sprague-Dawley, rat, plasma, po, 10 mg/kg

Structure (SMILES): NC(=O)C1(C(Cc2ccccc2)NC(=O)c2cccnc2-n2ccc(-c3cccc(C(F)(F)F)c3)n2)OCCO1 (stereo not shown) [Compound I-2, N-{1-[2-(Aminocarbonyl)-1,3-dioxolan-2-yl]-2-phenylethyl}-2-{3-[3-(trifluoromethyl)phenyl]-1H-pyrazol-1-yl}nicotinamide]
- AUC [1]: 1700 ng·h/mL
- Tmax [1]: 18 min
- prodrug AUC: 1315 ng·h/mL and 1485 ng·h/mL and 2297 ng·h/mL
- prodrug Tmax: 30 min
